Here are results for five compounds from patent US4073938A, “19,20-Bis-nor-prostenoic acids as hypolipemic compounds” (Istituto Biochimico Italiano di Loredana Lorenzini S.a.s., priority 1974, dated 1978).

Counter-ions that a name gives are not always drawn.

Series [1] concerns ulcer induced by aspirin. Nature of the series: Anti-ulcerous activity, ulcer from aspirin (9-keto sodium salt). In kind it is in vivo, Female rats of the Wistar stock. How it is done:
The anti-ulcerous activity of the compound in question is tested on an ulcer induced by aspirin and on an ulcer induced by phenyl butazone. In both models the mucous lesions are localized in the glandular section of the stomach.
Female rats of the Wistar stock weighing 150-175 g were selected. 24 hours before the start of the test the animals were made to fast, allowing water at will.
Each test group consists of 12 animals. The aspirin is administered orally in the form of a suspension (45 mg in ml of 0.5% carboxymethylcellulose for each animal). The application of the sodium salt in question takes place either intravenously (2 × 5 mg or 1 × 50 mg of substance/kg in 2 ml of 0.9% sodium chloride solution) or orally (2 × 10 mg or 2 × 100 mg of substance/kg in 2 ml of 0.5% carboxymethylcellulose suspension). The first dose is administered 10 minutes before application of the aspirin, and the second dose two and a half hours afterwards. […] The animals are killed 5 hours after application of the aspirin, the stomachs are prepared, and the number and size of the lesions is evaluated with a stereomicroscope.

Series [2] concerns ulcer induced by phenylbutazone. Nature of the series: Anti-ulcerous activity, ulcer from phenylbutazone (9-keto sodium salt). In kind it is in vivo, Female rats of the Wistar stock. How it is done:
The anti-ulcerous activity of the compound in question is tested on an ulcer induced by aspirin and on an ulcer induced by phenyl butazone. In both models the mucous lesions are localized in the glandular section of the stomach. Female rats of the Wistar stock weighing 140-170 g are involved. 24 hours before the start of the test the rats are made to fast, while they are allowed water at will. Each test group consists of 12 animals. For the formation of the ulcer, 200 mg of phenylbutazone/kg in 2 ml of 0.5% gum arabic are administered to the animals orally. 10 minutes before administration of phenylbutazone, and 21/2 hours afterwards, substance in question is administered orally (in 0.5% gum arabic solution) or intravenously (in 0.9% sodium chloride solution) in variable doses (see table). The animals are killed 5 hours after administration of phenylbutazone, the stomachs are prepared and examined under a stereomicroscope, to evaluate the number and size of the lesions.

Series [3] can be described thus: Triglyceridemia and cholesterolemia in rats given alcohol 10%. Conditions: 1 week endoperitoneal once daily (CPIB, BBA 200 mg/kg; C83 50 mg/kg); for Cholesterolemia: controls 91.5 ± 6.6, alcohol 81.0 ± 4.6; for Triglyceridemia: controls 97.8 ± 5.1, alcohol 169.0 ± 25.0. In kind it is in vivo, Male Sprague-Dawley rats. How it is done:
| Treatment for 1 week CPIB - BBA - 200 mg/kg endoperitoneal; C83 | 50mg/kg endoperitoneal; only one daily administration. | Male Sprague-Dawley rats 150 gr. | Groups of 6 rats.

Series [4] can be described thus: Deepness and rapidity test (untitled table 6). In kind it is in vivo, Male Sprague-Dawley rats. Conditions: 200 mg/kg endoperitoneal; for Rapidity ± E.S.: controls 3.4 ± 0.3; for Deepness (mm ± E.S.): controls 74.9 ± 6.2. The protocol:
| Treatment with the dose of 200 mg/kg endoperitoneal, one or two hours | before sacrifice. Male Sprague-Dawley rats with an average weight of 150 | gr.

A short description of series [5]: LD50 by mouth in the mouse. The series is classed as in vivo. The settings on record: in vivo, po. How it is done: a. LD50 by mouth in the mouse about 3000 mg/kg
25 gr of XVI are dissolved in 400 ml of water with NaOH 15% to pH 9, filtered and lyophilized : 24 gr of sodium salt of XVI as a white solid are obtained, humidity (K. Fisher) 2.08%, no U.V. absorption, equivalent weight found 301.7, I.R. bands at 3400, 1765, 1565, 1460, 1420, 1378 cm^-1.
After 20 hours at 20°, the solvent is evaporated in vacuo, the residue is dissolved in 1300 ml of water treated with 120 ml of acetic acid, extracted with chloroform. After solvent evaporation, 65.1 gr of the compound XVIII are obtained, as an oil, I.R. bands at 3420, 3100, 1710 cm^-1. 35 gr of the compound XVIII are dissolved in 600 ml of water with NaOH to pH 9. The solution is filtered and lyophilized: 35.5 gr of sodium salt of 9-hydroxy-19,20-bis-nor-prostanoic acid are obtained, as white solid, humidity (K.Fisher) 1.73%, no U.V. absorption, equivalent weight found 320, I.R. bands at 3400, 3300, 1565, 1460, 1390 cm^-1, LD50 by mouth in mice about 3000 mg/kg.

Regarding `CCCCCCC1=C(CCCCCCC(=O)O)C(=O)CC1` [9-keto-19,20-bis-nor-8(12)-prostenoic acid, sodium salt], the “Ulcer scale (x ± Sx)” value in series [1] (i.v., 1 × 50 mg/kg, p<0.01) was determined as 5.08 ± 2.38; in series [1] (i.v., 2 × 5 mg/kg), 11.80 ± 5.1; in series [1] (p.o., 2 × 10 mg/kg, controls 17.95 ± 2.98, p<0.05), 9.25 ± 2.11; in series [1] (p.o., 2 × 100 mg/kg, controls 17.95 ± 2.98, p<0.01), 5.83 ± 2.11; in series [2] (i.v., 1 × 50 mg/kg, controls 11.17 ± 2.77), 6.42 ± 3.41; in series [2] (i.v., 2 × 5 mg/kg, controls 11.17 ± 2.77, p<0.05), 3.00 ± 0.92. In addition, the “Ulcer scale (x ± Sx)” value was determined as 4.17 ± 0.91 in series [2] (p.o., 2 × 10 mg/kg, controls 9.25 ± 1.81, p<0.05) and 1.83 ± 0.69 in series [2] (p.o., 2 × 100 mg/kg, controls 9.25 ± 1.81, p<0.01). In series [1] (oral and intravenous), the “inhibition of ulcerating effect of aspirin (in words)” value was “inhibits considerably the ulcerating effect of the aspirin in both oral doses, and in the higher doses in the case of intravenous application”. Further, the inhibition at 50 mg/kg in series [2] (Rattus norvegicus, iv, 1 × 50 mg/kg) came out at 42.5%. Besides, the inhibition at 5 mg/kg in series [2] (Rattus norvegicus, iv, 2 × 5 mg/kg) is 83.1%. Further, the inhibition at 10 mg/kg in series [2] (Rattus norvegicus, po, 2 × 10 mg/kg) was found to be 54.9%. Moreover, the inhibition at 100 mg/kg in series [2] (Rattus norvegicus, po, 2 × 100 mg/kg) is 80.2%. Besides, the “inhibition of ulcerating effect of phenylbutazone (in words)” value in series [2] (orally) is recorded as “can inhibit the ulcerating effect of phenylbutazone depending on the doses (orally)”.

For `CC(=Cc1ccccc1)CC(=O)O` [BBA, β-benzalbutyric acid], in series [3], the Cholesterolemia was found to be 66.5 ± 1.6 and the Triglyceridemia is on record as 143.4 ± 17.8.

Turning to `CCOC(=O)C(C)(C)Oc1ccc(Cl)cc1` [CPIB, clofibrate], in series [3], the Cholesterolemia turned out to be 59.7 ± 2.9 and the Triglyceridemia worked out at 151.2 ± 10.4.

Regarding `CC(=O)Oc1ccccc1C(=O)O` [aspirin, reference compound], in series [4] (1 hour before sacrifice), the “Rapidity ± E.S.” value was determined as 1.2 ± 0.1 and the “Deepness (mm ± E.S.)” value amounted to 17.7 ± 2.4 mm. Besides, in series [4] (2 hours before sacrifice), the “Rapidity ± E.S.” value turned out to be 2.5 ± 0.2 and the “Deepness (mm ± E.S.)” value is reported as 48.4 ± 4.4 mm.

Regarding `CCCCCCC12CCC(O)C1(CCCCCCC(=O)O)O2` (centres unmarked) [sodium salt of XVI, 9-hydroxy-8(12)-epoxy-19,20-bis-nor prostanoic acid], the LD50 in series [5] was approximately 1500 mg/kg.
